{"source": "paper PMC11077991", "about": "“The small molecule CBR-5884 inhibits the Candida albicans phosphatidylserine synthase” (mBio, 2024)", "tested_on": "in vivo PS production in wild-type C. albicans", "experiment": "metabolic labeling of PS using probe C-L-SerN3", "assay_type": "cell-based, Candida albicans", "details": "170 µM CBR-5884, 1.5 mM probe", "experimental": "The C-L-SerN3 probe [(S)-1-((3-azidopropyl)amino)-3-hydroxy-1-oxopropan-2-aminium chloride] was synthesized as described in reference ([59]). Cells grown overnight in YPD were washed three times in H2O and inoculated into minimal media at a starting OD600 of 0.05. Cells were shaken for 5 h before 1.5 mM C-L-SerN3 probe was added, along with 170 µM CBR-5884 or an equivalent volume of DMSO. Cells were then incubated for another 5 h before being washed three times with H2O, and 5% BSA in 1× PBS was used to treat cells for 20 min. The cells were then washed three times with 1× PBS and then resuspended to OD600 of 0.6 in 1 mL PBS + 1 µM AZDye 488 DBCO (Click chemistry tools, cat# 1278-1). Cells were covered with aluminum foil and rocked for 1 h, and the dye was removed by pelleting the cells at 5,000 × g followed by washing with shaking at 1,000 rpm three times in 1× PBS, and resuspended in 200 µL Fluoromount-G mounting medium (cat# 00-4958-02). For each treatment, 10 µL of cells was added to a glass slide and 3 µL fresh Fluoromount-G mounting medium was used to mix the sample. […] The samples were excited using light at a wavelength of 488 nm, and the resulting fluorescence was captured within the range of 498–550 nm using a HyD detector. […] A total of 40 cells from at least 10 images were used for the quantification in ImageJ software."}
{"compound": "CCOC(=O)c1sc(NC(=O)c2ccco2)c(SC#N)c1C", "note": "[CBR-5884]", "values": [{"measurement": "C-L-SerN3 fluorescence on the periphery of the cell", "result": "significantly diminished"}]}
